{"source": "patent US20240389600A1", "about": "(The United States of America, as represented by the …, priority 2023, published 2024)", "key": {"[1]": {"system": "Georgia-06G peanut seeds", "conditions": "20° C."}, "[2]": {"system": "Georgia-06G peanut seeds", "conditions": "3% H2O2 replaced every 24 h, seed to liquid 1:8 w/v, 20° C., 72 h, Georgia-06G (2021 harvest)"}, "[3]": {"system": "Georgia-06G peanut seeds", "assay": "Static incubation of hydrated peanut seeds with H2O2; resveratrol content by HPLC", "conditions": "for resveratrol content in seeds: 48 and 72-h incubation"}}, "note": "Where two headings read alike, the source gives them in different places."}
{"smiles": "OO", "note": "[H2O2, hydrogen peroxide]", "values": [{"measurement": "resveratrol accumulation", "setting": "[1]; 2% H2O2, in-shaker, after 72 h, Georgia-06G 2021", "result": "exceeding 300 μg/g of seed dry weight"}, {"measurement": "resveratrol concentration", "setting": "[1]; 3% H2O2 replaced every 24 h, seed to liquid 1:4 w/v, shaker, 72 h, Georgia-06G (2021 harvest)", "result": 400, "unit": "µg/g"}, {"measurement": "concentration of resveratrol in seed extract chromatogram", "setting": "[1]; 3 portions of 3% H2O2 (new charge every 24 h), shaker, 72 h, Georgia-06G 2021", "result": "334 μg/g of dry weight"}, {"measurement": "resveratrol concentration", "setting": "[2]", "result": 600, "unit": "µg/g"}, {"measurement": "resveratrol content in seeds", "setting": "[3]; 2% H2O2, 20° C., Georgia-06G (2021 harvest), FIG. 13", "result": "100 to 200", "unit": "µg/g"}, {"measurement": "resveratrol production under moderate acidic conditions", "setting": "[3]; 2% H2O2, 20° C., static, acidic conditions, Georgia-06G 2020 harvest", "result": "almost completely blocked resveratrol production"}, {"measurement": "levels of resveratrol in seeds", "setting": "[3]; 3% H2O2, static, 15° C., after 72 and 96 h, Georgia-06G (2021 harvest)", "result": "20 to 50", "unit": "µg/g"}, {"measurement": "resveratrol content in seeds", "setting": "[3]; static, 20° C., Georgia-06G (2021 harvest), FIG. 11C", "result": "50 to 100", "unit": "µg/g"}, {"measurement": "concentration of H2O2 that damages seeds (overall production of resveratrol drops, particularly after 72 h)", "setting": "[3]; static, 20° C., seeds to H2O2 1:6 w/v, Georgia-06G 2021", "result": "above 4%"}]}
